Assay results taken from patent US10882871B2, “18/19F-labelled compounds which target the prostate specific membrane antigen” (BRITISH COLUMBIA CANCER AGENCY BRANCH, priority 2016, dated 2021).

Tested on: PSMA-expressing LNCAP cancer xenografts
Experiment: Biodistribution and tumor-to-background contrast ratios of 18F-labeled tracers
Assay type: in vivo, mouse (NODSCID 1L2RγKO male mice)
Experimental: LNCap cell line was obtained from ATCC (LNCaP clone FGC, CRL-1740). It was established from a metastatic site of left supraclavicular lymph node of human prostatic adenocarcinoma. Cells were cultured in PRMI 1640 medium supplemented with 10% FBS, penicillin (100 U/mL) and streptomycin (100 μg/mL) at 37° C. in a humidified incubator containing 5% CO2. Cells grown to 80-90% confluence were then washed with sterile phosphate-buffered saline (1×PBS pH 7.4) and trypsinization. The collected cells number was counted with a Hausser Scientific (Horsham, Pa.) Hemacytometer.
Imaging and biodistribution experiments were performed using NODSCID 1L2RγKO male mice. Mice were anesthetized by inhalation with 2% isoflurane in oxygen, and implanted subcutaneously with 1×10^7 LNCaP cells behind left shoulder. Mice were imaged or used in biodistribution studies when the tumor grew up to reach 5-8 mm in diameter during 5-6 weeks.
PET imaging experiments were conducted using Siemens Inveon micro PET/CT scanner. Each tumor bearing mouse was injected 6-8 MBq of F-18 labeled tracer through the tail vein under anesthesia (2% isoflurane in oxygen). The mice were allowed to recover and roam freely in their cage. After 50 min, the mice were sedated again with 2% isoflurane in oxygen inhalation and positioned in the scanner. A 10-min CT scan was conducted first for localization and attenuation correction after segmentation for reconstructing the PET images. Then, a 10-min static PET imaging was performed to determined uptake in tumor and other organs. The mice were kept warm by a heating pad during acquisition. For imaging studies acquired at 2 h post-injection (p.i.), the mice were placed in the micro PET/CT scanner at 110 min p.i. Then, the CT and PET acquisitions were conducted as described above.
For biodistribution studies, the mice were injected with the radiotracer as described above. At predetermined time points (1 or 2 h), the mice was anesthetized with 2% isoflurane inhalation, and euthanized by CO2 inhalation. Blood was withdrawn immediately from the heart, and the organs/tissues of interest were collected. The collected organs/tissues were weighed and counted using an automatic gamma counter. The uptake in each organ/tissue was normalized to the injected dose using a standard curve, and expressed as the percentage of the injected dose per gram of tissue (% ID/g).

Structure (SMILES)	Biodistribution Adrenal glands (1 h) [% ID/g]	Biodistribution Blood (1 h) [% ID/g]	Biodistribution Bone (1 h) [% ID/g]	Biodistribution Brain (1 h) [% ID/g]	Biodistribution Fat (1 h) [% ID/g]	Biodistribution Heart (1 h) [% ID/g]	Biodistribution Intestine (1 h) [% ID/g]	Biodistribution Kidneys (1 h) [% ID/g]	Biodistribution Liver (1 h) [% ID/g]	Biodistribution Lungs (1 h) [% ID/g]	Biodistribution Muscle (1 h) [% ID/g]	Biodistribution Pancreas (1 h) [% ID/g]	Biodistribution Spleen (1 h) [% ID/g]	Biodistribution Stomach (1 h) [% ID/g]	Biodistribution Testes (1 h) [% ID/g]	Biodistribution Tumor (1 h) [% ID/g]	Tumor:Blood contrast ratio (1 h)	Tumor:Muscle contrast ratio (1 h)	Tumor:kidney contrast ratio (1 h)	Biodistribution Adrenal glands (2 h) [% ID/g]	other results
C[N+](C)(Cc1ccc(C(=O)NCCCC[C@H](NC(=O)N[C@@H](CCC(=O)O)C(=O)O)C(=O)O)cc1)C[B-](F)(F)[18F] [F-18 HTK-01069]	4.77 ± 1.75	0.57 ± 0.15	0.36 ± 0.02	0.04 ± 0.01	0.99 ± 0.39	0.30 ± 0.06	0.54 ± 0.11	114 ± 41.3	2.90 ± 0.56	1.37 ± 0.36	0.26 ± 0.08	0.55 ± 0.16	2.67 ± 0.98	0.12 ± 0.05	0.62 ± 0.15	6.04 ± 1.24	10.8 ± 1.64	23.4 ± 3.71	0.07 ± 0.06	3.66 ± 2.01	Biodistribution Blood (2 h): 0.24 ± 0.10 % ID/g; Biodistribution Bone (2 h): 0.30 ± 0.10 % ID/g; Biodistribution Brain (2 h): 0.04 ± 0.01 % ID/g; Biodistribution Fat (2 h): 0.86 ± 0.53 % ID/g; Biodistribution Heart (2 h): 0.20 ± 0.08 % ID/g; Biodistribution Intestine (2 h): 0.72 ± 0.15 % ID/g; Biodistribution Kidneys (2 h): 103 ± 56.7 % ID/g; Biodistribution Liver (2 h): 2.75 ± 0.56 % ID/g; Biodistribution Lungs (2 h): 0.99 ± 0.32 % ID/g; Biodistribution Muscle (2 h): 0.15 ± 0.04 % ID/g; Biodistribution Pancreas (2 h): 0.41 ± 0.20 % ID/g; Biodistribution Spleen (2 h): 1.93 ± 0.85 % ID/g; Biodistribution Stomach (2 h): 0.09 ± 0.03 % ID/g; Biodistribution Testes (2 h): 0.40 ± 0.06 % ID/g; Biodistribution Tumor (2 h): 5.47 ± 0.75 % ID/g; Tumor:Blood contrast ratio (2 h): 26.9 ± 13.3; Tumor:Muscle contrast ratio (2 h): 37.4 ± 8.86; Tumor:kidney contrast ratio (2 h): 0.07 ± 0.03
C[N+](C)(Cc1cn(Cc2ccc(C(=O)NCCCC[C@H](NC(=O)N[C@@H](CCC(=O)O)C(=O)O)C(=O)O)cc2)nn1)C[B-](F)(F)[18F] [F-18 HTK-01070]	4.65 ± 1.75	0.52 ± 0.06	0.44 ± 0.09	0.04 ± 0.01	0.73 ± 0.26	0.33 ± 0.08	0.33 ± 0.05	71.7 ± 18.0	1.69 ± 0.19	1.39 ± 0.17	0.23 ± 0.04	0.33 ± 0.05	5.01 ± 0.64	0.10 ± 0.03	0.67 ± 0.17	8.28 ± 1.25	16.0 ± 1.37	37.3 ± 9.53	0.12 ± 0.04	2.11 ± 0.78	Biodistribution Blood (2 h): 0.23 ± 0.11 % ID/g; Biodistribution Bone (2 h): 0.30 ± 0.06 % ID/g; Biodistribution Brain (2 h): 0.03 ± 0.01 % ID/g; Biodistribution Fat (2 h): 0.62 ± 0.34 % ID/g; Biodistribution Heart (2 h): 0.13 ± 0.06 % ID/g; Biodistribution Intestine (2 h): 0.29 ± 0.08 % ID/g; Biodistribution Kidneys (2 h): 68.5 ± 28.7 % ID/g; Biodistribution Liver (2 h): 1.50 ± 0.30 % ID/g; Biodistribution Lungs (2 h): 0.69 ± 0.23 % ID/g; Biodistribution Muscle (2 h): 0.12 ± 0.03 % ID/g; Biodistribution Pancreas (2 h): 0.21 ± 0.07 % ID/g; Biodistribution Spleen (2 h): 1.30 ± 0.48 % ID/g; Biodistribution Stomach (2 h): 0.06 ± 0.02 % ID/g; Biodistribution Testes (2 h): 0.36 ± 0.21 % ID/g; Biodistribution Tumor (2 h): 7.56 ± 1.57 % ID/g; Tumor:Blood contrast ratio (2 h): 38.9 ± 18.8; Tumor:Muscle contrast ratio (2 h): 67.7 ± 14.8; Tumor:kidney contrast ratio (2 h): 0.14 ± 0.10
